Measurements from US4447440A, “Sulphenamides-containing lipoxygenase inhibiting agents and their use in pharmaceutical compositions” (Bayer Aktiengesellschaft, priority 1981, dated 1984).

Tests used:
platelet lipoxygenase = molecular target: T1, platelet lipoxygenase (Homo sapiens, UniProt P18054); test: Inhibition of the platelet lipoxygenase (synthesis of HETE), metabolism of radioactively labelled arachidonic acid by washed human platelets; type: cell-based; conditions: in vitro
T1 construct: metabolism of radioactively labelled arachidonic acid by washed human platelets; endogenous in cells; host or cells: washed human platelets
T1 sequence (P18054 1-663): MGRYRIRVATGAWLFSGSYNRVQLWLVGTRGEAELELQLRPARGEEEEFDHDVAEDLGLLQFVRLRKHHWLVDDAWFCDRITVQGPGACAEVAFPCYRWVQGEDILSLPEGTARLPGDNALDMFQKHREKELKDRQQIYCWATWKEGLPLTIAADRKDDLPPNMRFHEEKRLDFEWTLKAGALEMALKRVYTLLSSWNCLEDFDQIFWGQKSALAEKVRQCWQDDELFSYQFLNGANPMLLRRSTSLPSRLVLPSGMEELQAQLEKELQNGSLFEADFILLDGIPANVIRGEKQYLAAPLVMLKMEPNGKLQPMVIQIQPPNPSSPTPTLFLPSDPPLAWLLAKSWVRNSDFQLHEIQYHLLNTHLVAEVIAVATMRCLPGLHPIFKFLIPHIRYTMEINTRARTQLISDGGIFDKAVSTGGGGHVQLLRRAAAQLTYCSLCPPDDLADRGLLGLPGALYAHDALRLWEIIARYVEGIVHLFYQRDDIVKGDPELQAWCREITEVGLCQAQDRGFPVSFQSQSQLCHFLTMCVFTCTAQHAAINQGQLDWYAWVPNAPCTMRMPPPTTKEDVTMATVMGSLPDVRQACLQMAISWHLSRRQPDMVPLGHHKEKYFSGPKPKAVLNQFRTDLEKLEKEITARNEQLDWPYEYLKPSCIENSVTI
Procedure: In this test method, the metabolism of radioactively labelled arachidonic acid by washed human platelets is investigated. In this in vitro test, the radioactively labelled metabolites are extracted from the reaction mixture and separated by thin layer chromatography. The autoradiogram is evaluated on the thin layer scanner. Under these test conditions, the labelled metabolites are separated from the unreacted arachidonic acid and can subsequently be quantitatively evaluated. The distribution of the radioactivity in the cyclooxygenase products, formed during metabolism, thomboxane B2 (TXB2) and 12-hydroxy-5,8,10-heptadecatrienic acid (HHT) and the lipoxygenase product 12-hydroxy-5,8,11,14-eicosatetraenoic acid (HETE) as influenced by the inhibitors, gives a measure of the inhibition of the enzymes.
The inhibition of lipoxygenase by the sulphenamides which can be used according to the invention can be measured by the inhibition of the synthesis of HETE. […] Inhibition of the platelet lipoxygenase (synthesis of HETE)

leucocytes (migration) = test: Inhibition of the migration of leucocytes, sponge soaked in active compound introduced under the dorsal skin of rats; type: in vivo; conditions: rat, local dose 10 mg/rat; for inhibition in vivo at 10 mg: Leucocyte, read-out: Inhibition of the migration of leucocytes (control = 0%)
From the text: The sulphenamides used according to the present invention are also active in vivo. […] Table 2 which follows summarises the activities of some illustrative sulphenamides after local administration, by introduction of a piece of sponge soaked in the active compound under the dorsal skin of rats.

[1] = system: lipoxygenase / cyclooxygenase; conditions: prior art; cited from earlier work

Row | SMILES | Minimum effective inhibitory concentration (at least 50% inhibition) (platelet lipoxygenase) | inhibition in vivo at 10 mg (leucocytes (migration)) [%] | also measured
1 | O=C1c2ccccc2C(=O)N1SC1CCCCC1 [Example 32] | 3e-06 g/mL | 38 | 
2 | COC(=O)c1ccc(SN2CCCC2=O)cc1 [Example 22] |  | 64 | 
3 | O=C1c2ccc([N+](=O)[O-])cc2C(=O)N1Sc1ccccc1 [Example 36] |  | 64 | 
4 | CC(C)(C)c1ccc(SN2CCCCCC2=O)cc1 [Example 57] | 10^-5 g/ml |  | 
5 | CCCCCC#CCC#CCC#CCC#CCCCC(=O)O [5,8,11,14-eicosatetrainoic acid] |  |  | activity of known inhibitors of lipoxygenase, in words [1]: either simultaneously active as inhibitors of cyclooxygenase, or only active at very high concentrations
6 | Clc1ccc(SNc2nnc(N3CCOCC3)s2)cc1 [Example 5] |  | 22 | 
7 | O=C1CCCCCN1Sc1ccccc1 [Example 55] | 10^-6 g/ml | 78 | 
8 | O=c1oc2ccccc2c(=O)n1SC1CCCCC1 [Example 76] | 3e-06 g/mL |  | 
9 | CC1=NN(Sc2ccccc2)C(=O)C1 [Example 74] | 10^-6 g/ml | 52 | 
10 | CC1(C)OC(C)(C)N(Sc2ccc(Cl)cc2)C1=O [Example 15] |  | 47 | 
11 | Nc1ncn(Sc2ccc(Cl)cc2)n1 [Example 3] | 10^-6 g/ml |  | 
12 | c1ccc(CNSc2nnnn2-c2ccccc2)cc1 [Example 10] |  | 26 | 
13 | O=C1CCCN1Sc1ccc(Cl)c(C(F)(F)F)c1 [Example 20] |  | 64 | 
14 | O=C1CCCN1Sc1cc(C(F)(F)F)ccc1Cl [Example 21] |  | 44 | 
15 | O=C1C(=O)N(Sc2ccc(Cl)cc2)c2ccccc21 [Example 69] |  | 20 | 
16 | CCC(C)Sn1cnc2ccccc21 (centres unmarked) [Example 84] | 1e-05 g/mL |  | 
17 | CC(C)(C)c1ccc(SN2C(=O)c3ccccc3S2(=O)=O)cc1 [Example 62] | 3e-06 g/mL |  | 
18 | O=C1c2ccccc2C(=O)N1Sc1ccccc1 [Example 29] | 10^-6 g/ml | 48 | 
19 | O=C1CCCN1Sc1ccccc1 [Example 52] | 10^-6 g/ml | 76 | 
20 | c1ccc2c(c1)ncn2SC1CCCCC1 [Example 80, 1-cyclohexylthiobenzimidazole] | 1e-05 g/mL |  | 
21 | c1ccc(-n2nnnc2SNc2nc[nH]n2)cc1 [Example 11] |  | 22 | 
22 | O=C1CCN(c2ccccc2)N1 [phenidone] |  |  | activity of known inhibitors of lipoxygenase, in words [1]: either simultaneously active as inhibitors of cyclooxygenase, or only active at very high concentrations
23 | Nc1ncn(Sc2ccccc2)n1 [Example 2] | 10^-6 g/ml | 70 | 

Row | SMILES | Minimum effective inhibitory concentration (at least 50% inhibition) (platelet lipoxygenase) | inhibition in vivo at 10 mg (leucocytes (migration)) [%] | also measured
24 | O=C1CCN(c2ccccc2)N1Sc1ccc(Cl)cc1 [Example 72] | 10^-6 g/ml |  | 
25 | O=C1c2c(Cl)c(Cl)c(Cl)c(Cl)c2C(=O)N1Sc1ccccc1 [Example 42] | 3e-06 g/mL |  | 
26 | O=c1n(Sc2ccccc2)c(=O)n2c(=O)n(Sc3ccccc3)c(=O)n12 [Example 18] | 3e-06 g/mL | 41 | 
27 | Cc1ccc(Sn2cnc(N)n2)cc1 [Example 4] |  | 61 | 
28 | O=C1c2ccc([N+](=O)[O-])cc2C(=O)N1Sc1ccccc1 [Example 39] | 10^-6 g/ml |  | 
29 | O=C1C(=O)N(Sc2ccccc2)c2ccccc21 [Example 68] | 3e-06 g/mL |  | 
30 | O=C1c2cccc3cccc(c23)C(=O)N1Sc1ccccc1 [Example 47] |  | 21 | 
31 | O=C1CCCCCCCCCCN1Sc1ccccc1 [Example 58] |  | 78 | 
32 | O=C1c2ccccc2S(=O)(=O)N1Sc1ccccc1 [Example 60] | 3e-06 g/mL |  | 
33 | CC(C)(C)c1ccc(SN2CCCC2=O)cc1 [Example 54] | 10^-6 g/ml |  | 
34 | O=C1CCCN1Sc1ccc(Cl)cc1 [Example 53] | 10^-6 g/ml |  | 
35 | O=C1c2ccccc2C(=O)N1Sc1ccc(Cl)cc1 [Example 30] | 3e-06 g/mL |  | 
36 | Clc1ccc(Sn2cccn2)cc1 [Example 75] | 3e-06 g/mL |  | 
37 | O=c1c2cc3c(=O)n(Sc4ccccc4)c(=O)c3cc2c(=O)n1Sc1ccccc1 [Example 45] |  | 40 | 
38 | Cc1ccc(SN2C(=O)C(C)(C)OC2(C)C)cc1 [Example 16] |  | 40 | 
39 | O=C1c2ccccc2S(=O)(=O)N1Sc1ccc(Cl)cc1 [Example 61] | 10^-6 g/ml |  | 
40 | CC(Cc1ccc(O)c(O)c1)C(C)Cc1ccc(O)c(O)c1 (centres unmarked) [nordihydroguaiaretic acid] |  |  | activity of known inhibitors of lipoxygenase, in words [1]: either simultaneously active as inhibitors of cyclooxygenase, or only active at very high concentrations
41 | Cc1ccc(SN2C(=O)c3ccccc3C2=O)cc1 [Example 31] | 3e-06 g/mL | 43 | 
42 | O=C1c2ccc([N+](=O)[O-])cc2C(=O)N1Sc1ccc(Cl)cc1 [Example 40] | 3e-06 g/mL |  | Inhibition of the migration of leucocytes (control = 0%) (leucocytes (migration)): 41%
43 | CC(C)(C)c1ccc(SN2C(=O)c3c(Cl)c(Cl)c(Cl)c(Cl)c3C2=O)cc1 [Example 43] | 3e-06 g/mL |  | 
44 | O=C1c2ccc([N+](=O)[O-])cc2C(=O)N1Sc1ccc(Cl)cc1 [Example 38] |  | 56 | 
45 | CC(C)(C)c1ccc(SN2C(=O)c3ccccc3C2=O)cc1 [Example 35] | 3e-06 g/mL |  | 
46 | O=C1CCCCCN1Sc1ccc(Cl)cc1 [Example 56] | 3e-06 g/mL | 86 | 
